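All cell lines were grown in 96-well plates and treated with compound for 48 hours. The concentration for 50% growth inhibition is given as GI50. At the TGI there is no net growth.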
How the values were obtained:
Experiment in all cases: DTP human tumour cell line panel, 48 h
SK-MEL-5 melanoma = test system: SK-MEL-5 melanoma
RPMI-8226 leukemia = test system: RPMI-8226 leukemia
UACC-257 melanoma = test system: UACC-257 melanoma
DU-145 prostate = test system: DU-145 prostate
MDA-N = test system: MDA-N
MALME-3M melanoma = test system: MALME-3M melanoma
COLO 205 colon = test system: COLO 205 colon
MDA-MB-231 breast = test system: MDA-MB-231 breast
RXF 393 renal = test system: RXF 393 renal
KM12 colon = test system: KM12 colon

| Compound | TGI (SK-MEL-5 melanoma) | TGI (RPMI-8226 leukemia) | TGI (UACC-257 melanoma) | TGI (DU-145 prostate) | TGI (MDA-N) | TGI (MALME-3M melanoma) | TGI (COLO 205 colon) | TGI (MDA-MB-231 breast) | TGI (RXF 393 renal) | TGI (KM12 colon) | GI50 (RPMI-8226 leukemia) |
| --- | --- | --- | --- | --- | --- | --- | --- | --- | --- | --- | --- |
| Cn1c(=S)[nH]c(N)c(Cc2ccccc2)c1=O | > 100 µM | > 100 µM | > 100 µM | > 100 µM | > 100 µM | > 100 µM | > 100 µM | > 100 µM | > 100 µM | > 100 µM |  |
| CC(C)c1c(O[Si](C(C)C)(C(C)C)C(C)C)cc2c(c1O)CC[C@H]1C(C)(C)CCC[C@]21C | > 100 µM | > 100 µM | > 100 µM | > 100 µM | > 100 µM | > 100 µM | > 100 µM | > 100 µM | > 100 µM | > 100 µM |  |
| c1ccc(/C(=N/Nc2ccccn2)c2cccnn2)cc1 | 52.3 µM | 17 µM | > 100 µM | > 100 µM | > 100 µM | > 67.9 µM | > 100 µM | > 75.5 µM | > 100 µM | > 100 µM |  |
| Cn1c(=O)c2c(=O)cc(N)[nH]c2n(C)c1=O | > 100 µM | > 100 µM | > 100 µM | > 100 µM | > 100 µM | > 100 µM | > 100 µM | > 100 µM | > 100 µM | > 100 µM |  |
| COc1ccc(Nc2cc(=O)[nH]c(=O)[nH]2)cc1 | > 100 µM | > 100 µM | > 100 µM | > 100 µM | > 100 µM | > 100 µM | > 100 µM | > 100 µM | > 100 µM | > 100 µM |  |
| CCOC(=O)c1cc([N+](=O)[O-])c(Sc2ncnc3nc[nH]c23)c([N+](=O)[O-])c1 | 23 µM | 6.08 µM | 20.6 µM | 29.2 µM | 15.1 µM | 18.1 µM | 3.08 µM | 19.5 µM | 23.3 µM | 24.5 µM |  |
| O=c1c2cc([N+](=O)[O-])ccc2n2n1CCCCC2 | > 100 µM | > 100 µM | > 100 µM | > 100 µM | > 100 µM | > 100 µM | > 100 µM | > 100 µM | > 100 µM | > 100 µM |  |
| C=C1CC[C@@H]2[C@](C)(COC(=O)CCC(=O)O)CCC[C@@]2(C)[C@@H]1CCC1=CC(=O)OC1 | > 100 µM | > 100 µM | > 100 µM | 38.7 µM | > 100 µM | > 100 µM | > 100 µM | > 100 µM | > 100 µM | > 100 µM |  |
| CC1CC(=O)Nc2ccccc2N1C(=O)C1CC1 (stereo unspecified) | > 100 µM | > 100 µM | > 100 µM | > 100 µM | > 100 µM | > 100 µM | > 100 µM | > 100 µM | > 100 µM | > 100 µM |  |
| O=CC1OC(=O)c2cc(O)c(O)c(O)c2-c2c(cc(O)c(O)c2O)C(=O)OC1C1OC(=O)c2cc(O)c(O)c(O)c2-c2c(O)c(O)c3oc(=O)c4c(c(O)c(O)c5oc(=O)c2c3c54)-c2c(cc(O)c(O)c2O)C(=O)OCC1O (stereo unspecified) | > 100 µM | > 100 µM | > 100 µM | > 100 µM | 51.9 µM | > 100 µM | > 100 µM | 37 µM | > 100 µM | > 100 µM |  |
| CC(C)C(=O)/C=C/c1c(Cl)cccc1Cl | 18.2 µM | > 100 µM | 20.5 µM | 11.8 µM | 11.8 µM | 17.9 µM | 22.4 µM | 8.94 µM | 19 µM | 11.9 µM |  |
| CON[N+]([O-])=NC(C)C | > 100 µM | > 100 µM | > 100 µM | > 100 µM | > 100 µM | > 100 µM | > 100 µM | > 100 µM | > 100 µM | > 100 µM |  |
| C=C(C)[C@H]1CC(=O)[C@@]2(C)C[C@H]3O[C@]3(C)CC/C=C(\C)CC[C@H]12 | 95.6 µM | 91.9 µM | 55.8 µM | > 100 µM | > 100 µM | > 100 µM | 44.4 µM | > 100 µM | 74.1 µM | 54.6 µM |  |
| O=C(/C=C/c1cccc(Br)c1)N1CCN(CCOC(c2ccccc2)c2ccccc2)CC1 | 30.7 µM | 36.2 µM | > 100 µM | > 100 µM | > 100 µM | > 100 µM | 57.4 µM | > 100 µM | > 100 µM | > 100 µM |  |
| CN1CCN(c2n[nH]c(=O)c3c2nnn3C2CCCCC2)CC1 | > 100 µM | > 100 µM | > 100 µM | > 100 µM | > 100 µM | > 100 µM | > 100 µM | > 100 µM | > 100 µM | > 100 µM |  |
| Cc1cccc(N=N/C(=N\NC(=O)c2cc(Cl)ccc2O)c2ccc(N(CCC#N)CCC#N)cc2C)c1 | > 100 µM | 44.9 µM | 97.6 µM | > 100 µM | > 100 µM | 94.1 µM | 29.3 µM | 58.6 µM | 97.3 µM | 87.7 µM |  |
| COc1cc(OC)c(/C=N\Nc2nc3ccccc3c(=O)n2-c2ccccc2)c(OC)c1 | > 79.7 µM | > 100 µM | > 76.5 µM | > 94.1 µM | 43.9 µM | 79.3 µM | > 100 µM | 65.5 µM | 55 µM | > 31.6 µM |  |

| Compound | TGI (SK-MEL-5 melanoma) | TGI (RPMI-8226 leukemia) | TGI (UACC-257 melanoma) | TGI (DU-145 prostate) | TGI (MDA-N) | TGI (MALME-3M melanoma) | TGI (COLO 205 colon) | TGI (MDA-MB-231 breast) | TGI (RXF 393 renal) | TGI (KM12 colon) | GI50 (RPMI-8226 leukemia) |
| --- | --- | --- | --- | --- | --- | --- | --- | --- | --- | --- | --- |
| COC(=O)C1Cc2cc3c(cc2C1)CCC3 | > 100 µM | > 100 µM | > 100 µM | > 100 µM | > 100 µM | > 100 µM | > 100 µM | > 100 µM | > 100 µM | > 100 µM |  |
| CN(C)CC(C)(C)CN1c2ccccc2Sc2ccccc21 | 29.4 µM | 35.8 µM | 24.7 µM | 24.8 µM | 28.2 µM | 27.9 µM | 24.9 µM | 24.3 µM | 13 µM | 25.8 µM |  |
| CCOC(=O)CC1Nc2ccccc2C12CCc1c([nH]c3ccccc13)C2C(=O)OCC (stereo unspecified) | > 100 µM | 11.1 µM | > 100 µM | > 100 µM | > 100 µM | 51.6 µM | 22.4 µM | > 100 µM | > 100 µM | > 100 µM |  |
| O=C(O)c1ccc(Nc2cnc3cc(C(F)(F)F)ccc3n2)cc1 | > 100 µM | > 100 µM | > 100 µM | > 100 µM | > 100 µM | > 100 µM | > 100 µM | > 100 µM | > 100 µM | > 100 µM |  |
| NS(=O)(=O)c1ccc(NC(=O)c2ccc3nc4ccccc4c(Nc4ccc(S(N)(=O)=O)cc4)c3c2)cc1 | > 100 µM | > 100 µM | > 100 µM | > 100 µM | > 100 µM | > 100 µM | > 100 µM | > 100 µM | > 100 µM | > 100 µM |  |
| O=C(CC(C(=O)c1cccs1)c1ccc2c(c1)OCO2)c1ccccc1 (stereo unspecified) | > 100 µM | > 100 µM | > 100 µM | > 100 µM | > 100 µM | > 100 µM | > 100 µM | > 100 µM | > 100 µM | > 100 µM |  |
| O=C(Nc1ccc(Cl)cc1)c1cc(S(=O)(=O)N2CCNNC2=O)c(S)cc1Cl | > 100 µM | > 100 µM | > 100 µM | > 100 µM | > 100 µM | > 100 µM | > 100 µM | > 100 µM | 53.2 µM | > 100 µM |  |
| O=C1c2ccccc2C(=O)N1NC1=NCCN1 | > 100 µM | > 100 µM | > 100 µM | > 100 µM | > 100 µM | > 100 µM | > 100 µM | > 100 µM | > 100 µM | > 100 µM |  |
| C[C@@H]1CC[C@@]2(C)[C@H](C)/C(=C\COC(=O)/C=C/c3ccc(O)c(O)c3)CC[C@@]12C | 17 µM | 10.2 µM | 24.1 µM | 23.4 µM | 14.3 µM | 27.8 µM | 13.4 µM | 20.5 µM | 39.1 µM | 15.9 µM |  |
| O=C(NC(OCc1ccccc1)(C(F)(F)F)C(F)(F)F)OCc1ccccc1 | 29.3 µM | 41.1 µM | 27.3 µM | 30.3 µM | 28.5 µM | 31.9 µM | 31.6 µM | 32.3 µM | 25.3 µM | 30.2 µM |  |
| CCCCCCCCCCCCCCCC(=O)OC1C(O)C(O)C(O)C(O)C12CO2 (stereo unspecified) | > 100 µM | > 100 µM | > 100 µM | > 100 µM | > 100 µM | > 100 µM | > 100 µM | > 100 µM | > 100 µM | > 100 µM |  |
| CCOc1cc2c(cc1O)C(=O)C[C@@H]1[C@@H]2CC[C@]2(C)[C@@H](O)CC[C@@H]12 | 7.11 µM | > 9.48 µM | > 100 µM | > 51.9 µM | 0.106 µM | > 9.3 µM | 47.4 µM | 61.8 µM | > 100 µM | 29.6 µM |  |
| CCN(CC)CCSc1c(C(C)=O)c(=O)n(-c2ccccc2)c(=S)n1-c1ccccc1 | > 45.1 µM | 8.52 µM | 23.4 µM | 10 µM | 20.9 µM | 20.7 µM | 3.92 µM | 26.9 µM | 3.94 µM | 35 µM |  |
| CN(Cc1cnc2nc(N)nc(N)c2n1)c1ccc(C(=O)NCCCC(=O)O)cc1 | > 100 µM | > 100 µM | > 100 µM | > 100 µM | > 100 µM | > 100 µM | > 100 µM | > 100 µM | > 100 µM | > 100 µM |  |
| NC1NCCC(=O)N1CCc1c[nH]c2ccccc12 (stereo unspecified) | 30.8 µM | 60.3 µM | 32.1 µM | 63 µM | 34.3 µM | 40.1 µM | 32.5 µM | 34.4 µM | 43.5 µM | 29.8 µM |  |
| COc1ccc2nc3cc(Cl)ccc3c(NCCCCCC(=O)NC(COc3ccc4ccc5cccnc5c4n3)COc3ccc4ccc5cccnc5c4n3)c2c1 | 30.4 µM | 17.3 µM | 42.8 µM | 23.6 µM | 45.7 µM | > 100 µM | 32.2 µM | 36.2 µM | 39.3 µM | 85.5 µM |  |
| Cc1cc(N=Cc2c(CO)cnc(C)c2O)c(N=Cc2c(CO)cnc(C)c2O)cc1C | > 100 µM | > 100 µM | > 100 µM | > 100 µM | > 100 µM | > 100 µM | > 100 µM | > 100 µM | > 100 µM | > 100 µM | 26.1 µM |
